For data set [1], the system named is Salmonella typhimurium tester strains TA97a, TA98, TA100, TA102, TA1537 and TA1538. From the text: The second property that is important in testing a compound for use in methods described herein is mutagenicity. The most widely used mutagen/carcinogen screening assay is the Ames test. This assay is described by D.M. Maron and B.N. Ames in Mutation Research 113:173 ( 1983) and a specific screen is described in detail in Example 17, below. The Ames test utilizes several unique strains of Salmonella typhimurium that are histidine- dependent for growth and that lack the usual DNA repair enzymes. The frequency of normal mutations that render the bacteria independent of histidine (i.e., the frequency of spontaneous revertants) is low. The test allows one to evaluate the impact of a compound on this revenant frequency.
Because some substances are not mutagenic by themselves, but are converted to a mutagen by metabolic action, the compound to be tested is mixed with the bacteria on agar plates along with the liver extract. The liver extract serves to mimic metabolic action in an animal.
The mixtures are allowed to incubate. Growth of bacteria (if any) is checked by counting colonies.
In this example the compounds described herein are tested for their dark mutagenicity using an Ames assay. The procedures used for the Salmonella mutagenicity test as described in detail by Maron and Ames were followed exactly. Maron, D.M. and B.N. Ames, Mutation Research 113: 173 ( 1983). A brief description for each procedure is given here. The tester strains TA97a, TA98, TA 100, TA102, TA1537 and TA1538 were obtained from Dr. Ames. TA97a, TA98, TA1537 and TA1538 are frameshift tester strains. TA100 and TA102 are base-substitution tester strains. Upon receipt each strain was cultured under a variety of conditions to confirm the genotypes specific to the strains.
The first tests done with the strains were to determine the range of spontaneous reversion for each of the strains. With each mutagenicity experiment the spontaneous reversion of the tester strains to histidine independence was measured and expressed as the number of spontaneous revertants per plate. This served as the background controls.
For all experiments, the pre-incubation procedure was used. In this procedure one vial of each tester strain was thawed and 20 µL of this culture was added to 6 mL of Oxoid Nutrient Broth #2. This solution was allowed to shake for 10 hours at 37°C. In the pre-incubation procedure, 0.1 mL of this overnight culture was added to each of the required number of sterile test tubes. To half of the tubes 0.5 mL of a 10% S-9 solution containing Aroclor 1254 induced rat liver extract (Molecular Toxicology Inc., Annapolis, MD), and MgCl2, KCl, glucose-6-phosphate, NADP, and sodium phosphate buffer (Sigma, St. Louis, Missouri) were added. To the other half of the tubes 0.5 mL of 0.2M sodium phospate buffer, pH 7.4, was used in place of the S-9 mixture (the - S9 samples). Finally 0.1 mL of the test solution containing either 0, 0.1, 0.5, 1, 5, 10, 50, 100, 250, or 500 µg/mL of the test compound was added. The 0.7 mL mixture was vonexed and then pre-incubated while shaking for 20 minutes at 37°C. After shaking, 2 mL of molten top agar supplemented with histidine and biotin were added to the 0.7 mL mixture and immediately poured onto a minimal glucose agar plate (volume of base agar was 20 mL). The top agar was allowed 30 minutes to solidify and then the plates were inverted and incubated for 44 hours at 37°C. After incubation the number of revertant colonies on each plate were counted.
Maron and Ames (1983) describe the conflicting views with regard to the statistical treatment of data generated from the test.

The test system of another data set is HIV-1. The note with it: 1 Minute Irradiation.
Another data set deals with R17. Nature of the data set: r-17 bacteriophage assay: R17 treated with compound and UVA, remaining titer by plaque count on Hfr 3000 bacteria. The class given is cell-based. The settings on record: for R17 inactivation efficiency compared with AMT: varying concentration (Tables 7 and 8, FIGS. 6-10); for efficiency at inactivating R17 compared with AMT: constant concentration, varying doses of UV light 1.0-3.0 J/cm^2 (FIGS. 11-17). The method, then: In the r-17 assay, the bacteriophage was placed in a solution with each compound tested and was then irradiated. The ability of the phage to subsequently infect bacteria and inhibit their growth was measured. The bacteriophage was selected for its relatively accessible nucleic acid such that the culture growth inhibition would accurately reflect nucleic acid damage by the test compounds. The bacteriophage assay for nucleic acid binding to test compounds offers a safe and inexpensive procedure to identify compounds likely to display efficient pathogen inactivation. Previous experiments support that the r-17 assay accurately measures HIV-1 sensitivity to similar compounds. […] Modified Eagles Medium (DMEM) to a final phage concentration of 10^9/mL. An aliquot (0.5 mL) was transferred to a 1.5 mL snap-top polyethylene tube. […] Louis, MO). The tubes were placed in a light device as described in EXAMPLE 1 and irradiated for between 1 and 10 minutes. […] To make the dilutions. a 0.100 mL aliquot of the irradiated solution of phage and test compound was added to the first dilution tube of 0.4 mL of media then 0.020 mL of this solution was added to the second tube of 0.5 mL medium (1:25). […] After the top agar hardened, the plates were incubated at 37 °C overnight. The plaque forming units were then counted the following morning and the titer of the phage remaining after phototreatment was calculated based on the dilution factors. The following controls were run: the "phage only" in which phage was not treated with test compound and not irradiated (listed as "starting titer" in the tables below); the "UV only" in which the phage was irradiated in the absence of test compound; and the "dark" control in which the phage/test compound solution was not irradiated before it was diluted and plated. Compounds described herein were also tested at a constant concentration for varying doses of UV light. […] The compound tested was added at the desired concentration and the samples were vortexed. […] Between each 1.0 J/cm^2 intervals, 100µL was removed from each sample and placed in the first corresponding dilution tube, then five sequential dilutions were performed for each compound tested, at all 3 irradiation doses, as described above in this example. […] The contents of each tube was poured into its own LB plate and the plates were incubated overnight at 37 °C. Plaques were counted by visual inspection the following morning.

[2] abbreviates: 16 µM, HIV Starting Titer Approximately 5 Logs (Table 10).
[3] abbreviates: 32 µM, HIV Starting Titer Approximately 5 Logs (Table 10).
Where [4] appears, read: 64 µM, HIV Starting Titer Approximately 5 Logs (Table 10).
The mark [5] stands for this setting: 16 µM, HIV Starting Titer Approximately 5.4 Logs (Table 11).
Setting [6] is: 32 µM, HIV Starting Titer Approximately 5.4 Logs (Table 11).
The mark [7] stands for this setting: 64 µM, HIV Starting Titer Approximately 5.4 Logs (Table 11).

We go through twelve compounds from patent publication EP0840781B1, “METHODS AND DEVICES FOR THE REMOVAL OF PSORALENS FROM BLOOD PRODUCTS” (Cerus Corporation, priority 1995, dated 1996).

Like-named read-outs stand apart in the source and are kept apart here. A value given as a limit tells only on which side of the number the result lay.

Procedure for HIV-1: Pathogen inactivation efficiency of several compounds described herein was evaluated by examining the ability of the compounds to inactivate cell-free virus (HIV). Inactivation of cell-free HIV was performed as follows.
As in the R17 assay, small aliquots of the compounds listed in TABLES 10 and 11, below, at the concentrations listed in the table, were added to stock HIV-1 to a total of 0.5 mL. The stock HIV (10^5 - 10^7 plaque forming units/mL) was in DMEM/15% FBS. […] Controls included HIV-I stock only, HIV-1 plus UVA only, and HIV-I plus the highest concentration of each psoralen tested, with no UVA. Post irradiation. all samples were store frozen at -70° C until assayed for infectivity by a microtiter plaque assay. Aliquots for measurement of residual HIV infectivity in the samples treated with a compound of the present invention were withdrawn and cultured.
Residual HIV infectivity was assayed using an MT-2 infectivity assay. […] The assay medium was 85% DMEM (with a high glucose concentration) containing 100 µg of streptomycin, 100 U of penicillin, 50 µg of gentamicin, and 1 µg of amphotericin B per mL, 15% FBS and 2 µg of Polybrene (Sigma Chemical Co., St. Louis, Mo.) per mL. Test and control samples from the inactivation procedure were diluted in 50% assay medium and 50% normal human pooled plasma. The samples were serially diluted directly in 96-well plates (Coming Glass Works, Coming, N.Y.). The plates were mixed on an oscillatory shaker for 30 seconds and incubated at 37°C in a 5% CO2 atmosphere for 1 to 18 hours. […] After an additional 1 hour of incubation at 37°C in 5% CO2, 0.075 mL of assay medium containing 1.6% SeaPlaque agarose (FMC Bioproducts, Rockland, Maine) and prewarmed to 38.5°C was added to each well. The plates were kept at 37°C for a few minutes until several plates had accumulated and then centrifuged in plate carriers at 600 x g for 20 minutes in a centrifuge precooled to 10°C. In the centrifuge, cell monolayers formed prior to gelling of the agarose layer. The plates were incubated for 5 days at 37°C in 5% CO2 and stained by the addition of 0.05 mL of 50 µg/mL propidium iodide (Sigma Chemical Co.) in phosphate-buffered saline (pH 7.4) to each well. After 24 to 48 hours, the red fluorescence-stained microplaques were visualized by placing the plates on an 8,000 µW/cm^2 304 nm UV light box (Fotodyne, Inc., New Berlin, Wis.). The plaques were counted at a magnification of x20 to x25 through a stereomicroscope.

Regarding `Nc1c2ccccc2nc2ccccc12` [9-Amino-acridine, reference compound], in data set [1] (10 µg/plate), the “revertant colonies, TA98 -S9” value was 284 and the “revertant colonies, TA1537 -S9” value was found to be 284.
With `Cc1oc2c(C)c3oc(=O)cc(C)c3cc2c1CNCCCN` [Compound 5, 4'-(5-amino-2-aza)pentyl4,5',8-trimethylpsoralen], the “HIV Log Kill” value is recorded as 0.9 with HIV-1 (setting [2]), 1.3 in the data set with HIV-1 (setting [3]) and more than 2.6 in the data set with HIV-1 (setting [4]). In addition, the “R17 Log Kill” value in the data set on R17 (16 µM, 1 Minute irradiation = 1.2 J/cm^2, Starting Titer Approx. 7.1 Logs (Table 8)) was 5.6; in the data set on R17 (32 µM, 1 Minute irradiation = 1.2 J/cm^2, Starting Titer Approx. 7.1 Logs (Table 8)), more than 6.1; with R17 (64 µM, 1 Minute irradiation = 1.2 J/cm^2, Starting Titer Approx. 7.1 Logs (Table 8)) it was more than 6.1. The “R17 inactivation efficiency compared with AMT” value in the data set with R17 was “significantly higher inactivation efficiency than does AMT”.
For the compound `[N-]=[N+]=[N-]` [sodium azide, reference compound], the “revertant colonies, TA100 -S9” value in data set [1] (1.5 µg/plate (positive control)) was 965. For the same compound, the “revertant colonies, TA1538 -S9 (Table 18 (A))” value in data set [1] (1.5 µg/plate (positive control), Table 18 (A), background 126) came to 965.
On to `Cc1oc2c(C)c3oc(=O)cc(C)c3cc2c1CNCCN` [Compound 1, 4'-(4-amino-2-aza)butyl-4,5',8-trimethylpsoralen], for which the “HIV Log Kill” value in the data set with HIV-1 (setting [4]) was determined as 2.1. In addition, in data set [1] (5 µg/plate), the “revertant colonies, TA100 +S9” value is -24; the “revertant colonies, TA100 -S9” value turned out to be 292; the “revertant colonies, TA1538 +S9” value worked out at 21; the “revertant colonies, TA1538 -S9” value stood at 10. For the same compound, in data set [1] (10 µg/plate), the “revertant colonies, TA100 +S9” value is -22; the “revertant colonies, TA100 -S9” value is listed as 337; the “revertant colonies, TA1538 +S9” value is given as 22; the “revertant colonies, TA1538 -S9” value came out at 12. In addition, in data set [1] (two-fold or greater increase in revertants above background and dose dependent response), the “frameshift mutagenicity (Ames, summary)” value is recorded as “weak frameshift mutagen in TA1538 at 5 µg/plate in the presence of S9”. Besides, in data set [1] (two-fold or greater increase in revertants above background and dose dependent response, TA100, TA102), the “base-substitution mutagenicity (Ames, summary)” value is on record as “displayed mutation in the TA100 strain, but only in the absence of S9”. Also, the “Logs Killed” value in the data set on R17 (Experiment 2, compound only (3.2 µM), no uva) is given as 0.1.
As to `Cc1oc2c(C)c3oc(=O)cc(C)c3cc2c1CNCCCNCCCN` [Compound 12, 4'-(9-amino-2,6-diaza)nonyl-4.5',8-trimethylpsoralen], the “HIV Log Kill” value is on record as 0.4 with HIV-1 (setting [5]), 0.8 in the data set with HIV-1 (setting [6]) and 1.3 in the data set on HIV-1 (setting [7]). Moreover, in the data set with R17, the “efficiency at inactivating R17 compared with AMT” value is on record as “more efficient at inactivating R17 than was AMT”.
Regarding `Cc1oc2c(C)c3oc(=O)cc(C)c3cc2c1CNCCCCCN` [Compound 10, 4'-(7-amino-2-aza)heptyl-4,5',8-trimethylpsoralen], the figures for the “HIV Log Kill” value in the data set with HIV-1 (setting [5]), in the data set on HIV-1 (setting [6]) and in the data set on HIV-1 (setting [7]) were 2.0, more than 3.5 and more than 3.5, respectively. Besides, the “efficiency at inactivating R17 compared with AMT” value with R17 was “more efficient at inactivating R17 than was AMT”.
Regarding `OO` [hydrogen peroxide, reference compound], the “revertant colonies, TA102 -S9” value in data set [1] (Salmonella typhimurium, pH 7.4) was determined as 660.
Take `Cc1oc2c(C)c3oc(=O)cc(C)c3cc2c1CNCCCOCCCCOCCN` [Compound 9, 4'-(13-amino-2-aza-6,11-dioxa)tridecyl-4,5',8-trimethylpsoralen]: the “HIV Log Kill” value in the data set with HIV-1 (setting [5]) was 0.8; in the data set on HIV-1 (setting [6]) it was 1.4; in the data set with HIV-1 (setting [7]) it was 2.7.
Take `Cc1oc2c(C)c3oc(=O)cc(C)c3cc2c1CNCCCNCCCCNCCCN` [Compound 15, 4'-(14-amino-2,6,11-triaza)tetradecyl-4,5',8-trimethylpsoralen]: in the data set on R17, the “efficiency at inactivating R17 compared with AMT” value is given as “more efficient at inactivating R17 than was AMT”.
Take `Cc1oc2c(C)c3oc(=O)cc(C)c3cc2c1COCCOCCNCCCCN` [Compound 8, 4'-(12-amino-8-aza-2,5-dioxa)dodecyl-4,5',8-trimethylpsoralen]: the “HIV Log Kill” value in the data set with HIV-1 (setting [2]) was determined as 1.1; in the data set on HIV-1 (setting [3]), 1.9; with HIV-1 (setting [4]), 3.7.
Take `Cc1oc2c(C)c3oc(=O)cc(C)c3cc2c1COCCOCCN` [Compound 7, 4'-(7-amino-2,5-oxa)heptyl-4.5',8-trimethylpsoralen]: the “HIV Log Kill” value with HIV-1 (setting [2]) came to 0.8; in the data set with HIV-1 (setting [3]), 2.1; in the data set on HIV-1 (setting [4]), 3.5. Further, the “R17 Log Kill” value in the data set with R17 (16 µM, 1 Minute Irradiation, Starting Titer Approx. 7.1 Logs (Table 9)) was more than 6; in the data set on R17 (32 µM, 1 Minute Irradiation, Starting Titer Approx. 7.1 Logs (Table 9)), more than 6; in the data set with R17 (64 µM, 1 Minute Irradiation, Starting Titer Approx. 7.1 Logs (Table 9)), more than 6.
As for `Cc1cc(=O)oc2c(C)c3oc(CNCCN)c(C)c3cc12` [Compound 16, 5'-(4-amino-2-aza)butyl4,4',8-trimethylpsoralen], the “R17 inactivation efficiency compared with AMT” value in the data set with R17 is on record as “significantly higher inactivation efficiency than does AMT”.
